Four compounds from patent US6479487B1, “6, 9-disubstituted 2-[trans-(4-aminocyclohexyl)amino] purines” (Aventis Pharmaceuticals Inc., priority 1998, dated 2002) can be followed below.

Where “and” joins values, the source holds several entries; their conditions need not be identical. Identical values can stand only once. Counter-ions that a name gives are not always drawn. Like-named read-outs stand apart in the source and are kept apart here.

The target in one test is T1, cdk2/cyclin E (Homo sapiens, UniProt P24941).
T1 construct: made in house; host or cells: insect cells (baculovirus co-infection)
Nature of the test: Cyclin-Dependent Kinase 2 Assay (cdk2/cyclin E, GST-Rb substrate). The format is biochemical. To be noted: recombinant cdk2/cyclin E, 10 μM ATP, 30 min at 30° C., several values in a cell = separate determinations, read-out: CDK-2 Inhibition IC50. The method, then:
Substrate: GST-Rb as described above for cdk4/cyclin D1
Assay conditions for cdk2/cyclin E were identical to those for cdk4/cyclin D1 including the substrate. The concentration of recombinant cdk2/cyclin E in the assay was 0.1 μg per 100 μl assay. Incubation was for 30 min at 30° C.

For another test, the target named is T2, cdk4/cyclin D1 (Homo sapiens, UniProt P11802).
T2 construct: made in house; host or cells: Sf9 insect cells (Bac-to-Bac baculovirus, pFastBac)
In words: Cyclin-dependent Kinase 4 Assay (cdk4/cyclin D1, GST-Rb substrate). It counts as biochemical. The note with it: cdk4/cyclin D1 insect cell lysate, 10 μM ATP, 30 min at 37° C., several values = separate determinations, read-out: CDK4 Inhibition IC50. Put shortly: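 IC50 against cdk4 measured by scintillation counting of bead-bound GST-Rb (0.5 μg) after filtration and four TNEN washes. Reaction was 30 min at 37 °C in HEPES pH 7.5 buffer with 10 mM MgCl2 and 1 mM EGTA. Enzyme source was 0.1 μg Sf9 lysate coinfected with cdk4 and cyclin D1.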

The next test deals with MDA-MB-231. Nature of the test: In vitro tumor cell proliferation, MDA-MB-231. It counts as cell-based, human. To be noted: sulforhodamine B or CyQUANT assay, many values given with an undefined *, read-out: In vitro Tumor Cell Proliferation (IC50, μM) Breast MDA-MB-231. Put shortly:
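Proliferation quantified by SRB staining of TCA-fixed cells after 3 days of drug plus 4 days with replenished drug, following overnight attachment at 37 °C.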

The subject of the next test is HT-29. Nature of the test: In vitro tumor cell proliferation, HT-29. The format is cell-based, human. The note with it: many values given with an undefined *, read-out: In vitro Tumor Cell Proliferation (IC50, μM) Colon HT-29. Put shortly: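 Growth was quantified either with CyQUANT, plates frozen at −80° C after 3 days of drug, or by sulforhodamine B staining of TCA-fixed cells after 3 days of drug plus 4 days with fresh drug. Trypan blue-excluding HT-29 cells were plated overnight at 37° C before dosing.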

The next test has as its system HCT-15. In words: In vitro tumor cell proliferation, HCT-15. The note with it: read-out: In vitro Tumor Cell Proliferation (IC50, μM) Colon HCT-15. It counts as cell-based, human. The method, then:
(§1) The proliferation of tumor cells was measured using a sulforhodamine B assay as described in Skehan, P., et al., J. Natl. Cancer Inst. […] Tumor cells were harvested with trypsin-EDTA, cells that excluded trypan blue were counted, added to 96-well plates and incubated overnight at 37° C. Drug was added to the wells following dilution in culture medium. Three days later, the medium was removed and replenished with medium containing fresh drug and incubated an additional 4 days. The cells were then fixed with 0.1 ml 10% trichloroacetic acid for 60 min at 4° C. The plates were rinsed five times with tap water, air-dried and stained for 30 min with 0.4% sulforhodamine B in 1% acetic acid and air-dried.
(§2) Alternatively, the CyQUANT cell proliferation assay was used to quantitate cell proliferation.
(§3) Alternatively, the CyQUANT cell proliferation assay was used to quantify tumor cell proliferation. Tumor cells were harvested with trypsin-EDTA, cells that excluded trypan blue were counted, added to 96-well plates and incubated overnight at 37° C. Drug was added to the wells following dilution in culture medium. Three days later the medium was removed and the plates frozen at −80° C. for at least 30 minutes.

In another test the test system is A549. In words: In vitro tumor cell proliferation, A549. The format is cell-based, human. The note with it: many values given with an undefined *, read-out: In vitro Tumor Cell Proliferation (IC50, μM) Lung A549. In outline:
(§4)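 SRB read-out: cells seeded overnight, 37° C; drug 3 d, medium plus fresh drug replaced, +4 d; TCA fix 60 min 4° C, 0.4% SRB stain 30 min. Alt. CyQUANT: drug 3 d, plates frozen −80° C before read.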

A further test relates to DMS-114. In words: In vitro tumor cell proliferation, DMS-114. The format is cell-based, human. To be noted: many values given with an undefined *, read-out: In vitro Tumor Cell Proliferation (IC50, μM) Lung DMS-114. Put shortly: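 Human small cell lung carcinoma DMS-114 cells plated overnight, then drug-treated for 3 days, medium and drug renewed, and incubated 4 more days. Growth read by sulforhodamine B staining after TCA fixation; alternatively by CyQUANT after 3 days' drug exposure and freezing at −80 °C.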

The test system of a further test is PC-3. Nature of the test: In vitro tumor cell proliferation, PC-3. To be noted: many values given with an undefined *, read-out: In vitro Tumor Cell Proliferation (IC50, μM) Prostate PC-3. The format is cell-based, human. In outline:
as §4

The test system of another test is DU145. In words: In vitro tumor cell proliferation, DU145. It counts as cell-based, human. To be noted: many values given with an undefined *, read-out: In vitro Tumor Cell Proliferation (IC50, μM) Prostate DU145. Put shortly:
as §4

The test system of another test is MCF-7. In words: In vitro tumor cell proliferation, MCF-7. To be noted: Homo sapiens, MCF7, MCF-7; sulforhodamine B or CyQUANT assay; read-out: In vitro Tumor Cell Proliferation (IC50, μM) Breast MCF-7. The format is cell-based, human. The method, then: as §1, §2, §3
MCF7 is a human breast adenocarcinoma, hormone-dependent (HTB 22);

The mark [1] stands for this setting: Homo sapiens, MDA-MB-231, MDA-MB-231.

T2 sequence (P11802 whole entry): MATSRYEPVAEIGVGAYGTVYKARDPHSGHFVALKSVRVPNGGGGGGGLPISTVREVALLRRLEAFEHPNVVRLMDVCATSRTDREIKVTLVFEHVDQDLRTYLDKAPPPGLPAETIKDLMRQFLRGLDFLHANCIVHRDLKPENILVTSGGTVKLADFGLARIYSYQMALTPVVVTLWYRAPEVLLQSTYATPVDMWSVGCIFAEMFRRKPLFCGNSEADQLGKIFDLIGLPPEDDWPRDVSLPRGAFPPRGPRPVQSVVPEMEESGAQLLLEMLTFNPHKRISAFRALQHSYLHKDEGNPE
T2 sequence (P24385 whole entry partner): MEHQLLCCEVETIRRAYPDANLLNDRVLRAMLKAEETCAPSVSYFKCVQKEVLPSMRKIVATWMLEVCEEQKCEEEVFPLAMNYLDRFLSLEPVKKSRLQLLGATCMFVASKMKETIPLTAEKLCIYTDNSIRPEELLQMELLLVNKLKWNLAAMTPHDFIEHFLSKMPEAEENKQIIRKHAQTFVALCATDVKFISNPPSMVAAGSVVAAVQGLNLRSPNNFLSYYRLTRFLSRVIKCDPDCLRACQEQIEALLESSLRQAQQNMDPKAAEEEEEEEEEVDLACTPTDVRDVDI

With `COc1ccc(CNc2nc(N[C@H]3CC[C@H](N)CC3)nc3c2ncn3C2CCCC2)cc1` [Example 8, 2-[Trans-(4-aminocyclohexyl)amino]-6-[(4-methoxybenzyl)amino]-9-cyclopentylpurine dihydrochloride], the IC50 on cdk2/cyclin E was 30 nM (2×) and 48 nM and 22 nM; on cdk4/cyclin D1, 6600 nM and 3200 nM; in the test on MDA-MB-231 (setting [1]) it was 0.88 µM; with MDA-MB-231 (MDA-MB-231, dihydrochloride) it was 1.2 µM; with HT-29 (HT-29, dihydrochloride), 1.4 µM; with HT-29 (Homo sapiens, HT-29, HT-29), 1.3 µM. Besides, the IC50 in the test with HCT-15 (HCT-15, dihydrochloride) is 3.5 µM; in the test on HCT-15 (Homo sapiens, HCT-15, HCT-15) it was 4.5 µM; in the test on A549 (A549, dihydrochloride) it was 1.1 µM; in the test with A549 (Homo sapiens, A549, A549) it was 0.8 µM; in the test with DMS-114 (DMS-114, dihydrochloride), 0.89 µM; in the test on DMS-114 (Homo sapiens, DMS-114, DMS-114), 0.8 µM. For the same compound, the IC50 in the test on PC-3 (Homo sapiens, PC-3, PC-3) turned out to be 0.98 µM; with PC-3 (PC-3, dihydrochloride), 0.63 µM; in the test with DU145 (DU145, dihydrochloride), 1.2 µM; with DU145 (Homo sapiens, DU-145, DU145), 0.88 µM.

Regarding `COc1ccccc1CNc1nc(N[C@H]2CC[C@H](N)CC2)nc2c1ncn2C1CCCC1` [Example 12, 2-[Trans-(4-aminocyclohexyl)amino]-6-[(2-methoxybenzyl)amino]-9-cyclopentylpurine dihydrochloride], the IC50 at cdk2/cyclin E was 230 nM; at cdk4/cyclin D1, 4500 nM and 6200 nM; with MDA-MB-231 (setting [1]), 8.6 µM; in the test with MDA-MB-231 (MDA-MB-231, dihydrochloride) it was 11 µM; with HT-29 (HT-29, dihydrochloride) it was 8.5 µM; in the test on HT-29 (Homo sapiens, HT-29, HT-29) it was 7.3 µM. Besides, the IC50 with HCT-15 (Homo sapiens, HCT-15, HCT-15) was 16 µM; in the test on A549 (A549, dihydrochloride), 3.5 µM; in the test on A549 (Homo sapiens, A549, A549), 5.6 µM; with DMS-114 (Homo sapiens, DMS-114, DMS-114), 5.4 µM; in the test with PC-3 (Homo sapiens, PC-3, PC-3), 4.4 µM; in the test with PC-3 (PC-3, dihydrochloride) it was 3.5 µM. In addition, the IC50 came to 6.7 µM in the test on DU145 (DU145, dihydrochloride) and 3.5 µM with DU145 (Homo sapiens, DU-145, DU145).

In the case of `COc1cccc(CNc2nc(N[C@H]3CC[C@H](N)CC3)nc3c2ncn3C2CCCC2)c1OC` [Example 13, 2-[Trans-(4-aminocyclohexyl)amino]-6-[(2,3-dimethoxybenzyl)amino]-9-cyclopentylpurine dihydrochloride], the IC50 amounted to 50 nM at cdk2/cyclin E; 2900 nM at cdk4/cyclin D1; 2 µM with MCF-7; 2.2 µM in the test on MDA-MB-231 (setting [1]); 2.6 µM with MDA-MB-231 (MDA-MB-231, dihydrochloride); 3.4 µM with HT-29 (HT-29, dihydrochloride). Moreover, the IC50 with HT-29 (Homo sapiens, HT-29, HT-29) stood at 3.1 µM; with A549 (Homo sapiens, A549, A549), 1.7 µM; with DMS-114 (DMS-114, dihydrochloride) it was 1.4 µM; with DMS-114 (Homo sapiens, DMS-114, DMS-114), 1 µM; in the test on PC-3 (Homo sapiens, PC-3, PC-3) it was 1.9 µM; with PC-3 (PC-3, dihydrochloride) it was 1.3 µM. Further, the IC50 was found to be 1.7 µM in the test with DU145 (DU145, dihydrochloride) and 0.99 µM with DU145 (Homo sapiens, DU-145, DU145).

`N[C@H]1CC[C@H](Nc2nc(NCc3ccccc3C(F)(F)F)c3ncn(C4CCCC4)c3n2)CC1` [Example 25, 2-[Trans-(4-aminocyclohexyl)amino]-6-[(2-trifluorobenzyl)amino]-9-cyclopentylpurine dihydrochloride]: the IC50 on cdk2/cyclin E is 260 nM; on cdk4/cyclin D1, 6400 nM and 6900 nM; with MDA-MB-231 (setting [1]) it was 4.5 µM; in the test on MDA-MB-231 (MDA-MB-231, dihydrochloride), 4.3 µM; with HT-29 (HT-29, dihydrochloride), 3 µM; in the test on HT-29 (Homo sapiens, HT-29, HT-29) it was 2.6 µM. The IC50 with HCT-15 (HCT-15, dihydrochloride) worked out at 3.7 µM; in the test on HCT-15 (Homo sapiens, HCT-15, HCT-15) it was 4 µM; in the test with A549 (Homo sapiens, A549, A549), 1.9 µM; with DMS-114 (DMS-114, dihydrochloride), 0.95 µM; in the test on DMS-114 (Homo sapiens, DMS-114, DMS-114), 0.85 µM; in the test on PC-3 (Homo sapiens, PC-3, PC-3), 1.1 µM. For the same compound, the IC50 in the test on PC-3 (PC-3, dihydrochloride) is 1.7 µM; in the test with DU145 (DU145, dihydrochloride) it was 1.7 µM; in the test with DU145 (Homo sapiens, DU-145, DU145), 0.95 µM.
